# Results taken from US20230331707A1, “PROGRAMMED CELL NECROSIS INHIBITOR, PREPARATION METHOD THEREFOR, AND USE THEREOF” (Shanghai Institute of Organic Chemistry, Chinese Academy of …, priority 2020, published 2023).
# Assays:
# [1] = system: RIPK1^K612R/K612R mutant mice; test: Digestive system inflammation in RIPK1 K612R/K612R mutant mice; type: in vivo; details: gavage 25 mg/kg, control Nec-1s 50 mg/kg
# Source text: The adopted biological test scheme was: RIPK1^K612R/K612R mutant mice were used as model mice to test the effect of representative compound QY-10-40 or QY-13-19 on spontaneous intestinal inflammation.
# K612R mutation leads to decreased in intracellular RIPK1 level but abnormal activation, making it sensitive to programmed necrosis and caspase-1 activation, and responding to TLRs signaling. RIPK1^K612R/K612R mice will appear responses such as age-dependent reduced RIPK1 expression and abnormal activation, spontaneous intestinal inflammation and splenomegaly.
# Methods: The compounds to be tested were dissolved in 0.5% carboxymethyl cellulose according to the required concentration one day in advance, and sonicated overnight. Mice were gavaged in a volume of 0.1 ml/10 g body weight. Body weight was measured three times a week, and samples were collected at the end of the experiment. The effect of the compounds was calculated using Prism Graphpad statistical software.
# [2] = system: TNFα-induced systemic inflammatory response syndrome; test: TNFα-induced systemic inflammatory response syndrome in mice; type: in vivo; details: gavage 2 mg/kg, 20 min before TNFα tail vein injection
# Method: The adopted biological test scheme was: Tail vein injection of tumor necrosis factor TNFα would lead to the occurrence of systemic inflammatory response syndrome in mice, resulting in decreased body temperature and death. The effect of representative compound QY-10-40 on TNFα-induced systemic inflammatory response syndrome was tested, and the change in body temperature and death of mice were monitored.
# Systemic inflammatory response syndrome, also known as inflammatory storm, refers to a systemic non-specific inflammatory response caused by infectious or non-infectious injuries such as severe infection, multiple trauma, burns, ischemia reperfusion, and acute pancreatitis. Under this condition, large amounts of inflammatory factors will release, in severe cases organism will loss the control of inflammatory response, resulting in multi-organ failure and even death.
# Methods: The compounds to be tested were dissolved in 0.5% carboxymethyl cellulose according to the required concentration one day in advance, and sonicated overnight. Each mouse was gavaged with 200 μl. 20 min later, […] was injected through the tail vein. Body temperature changes of mice were monitored by infrared thermometer after injection. The effects of the compounds were calculated using Prism Graphpad statistical software.
# [3] = system: MEFs cells expressing RIPK1 WT; test: TSZ-induced programmed necrosis in MEFs cells expressing RIPK1 WT; type: cell-based, mouse; details: 600 nM
# Source text: (§1) The adopted biological test protocol was: the effect of compounds on programmed necrosis in MEFs cells (mouse embryonic fibroblasts) with RIPK1 S161E mutation.
# (§2) In order to verify the inhibitory effect of the compound of the present invention on the highly activated RIPK1 kinase at the cellular level, MEFs cells stably expressing RIPK1 S161E (simulating the activation state of RIPK1 after phosphorylation) were selected, TNFα-SM164-zVAD (Caspase inhibitor for inhibiting apoptosis) (TSZ) was used in combination to induce programmed cell necrosis, and cell viability was calculated by detecting chemiluminescence values, thereby obtaining the biological activity of the compound in inhibiting programmed necrosis.
# (§3) Methods: MEFs cells replenished by RIPK1: WT-RIPK1, S161A-RIPK1 and S161E-RIPK1 were replenished in RIPK1 stable knockout cells respectively. After stable expression and being cultured to logarithmic growth phase, the cells were collected, and centrifuged at 1000 rpm for 5 min. The supernatant was discarded. Cell concentration was adjusted to 5×10^4/mL, and cells were inoculated into 384-well plates with 40 μL per well. Cell culture medium diluted SM164 (100 nM), zVAD (50 μM) and compound, each […], were added to the corresponding wells. After pretreatment at 37° C. for 1 h, 5 μL of cell culture medium diluted TNF (50 ng/mL) was added to each well in the stimulated group and 5 μL of culture medium was added to the control group. […] The unstimulated DMSO control wells (Ctrl) were taken as 100% cell viability. EC50 values of the compounds were calculated using Prism Graphpad statistical software.
# [4] = system: MEFs cells expressing RIPK1 S161E mutant; test: TSZ-induced programmed necrosis in MEFs cells expressing RIPK1 S161E mutant; type: cell-based, mouse; details: 600 nM
# Source text: as §1, §2, §3
# [5] = Liver microsomal stability test, human; type: in vitro ADME
# Source text: (§4) The adopted biological test protocol was: testing the half-life of the compound in human- or mouse-derived liver microsomes.
# (§5) Liver microsomes contain many enzymes involved in drug metabolism, especially cytochrome P-450, and therefore it is one of the major tissues involved in drug metabolism in living organisms. There are some correlations between the stability of the compound in liver microsomes and the pharmacogenetic stability thereof in vivo. Therefore, the relative stability of compounds in vivo can be roughly predicted by testing the half-life of different compounds in human- or mouse-derived liver microsomes. The specific methods were as follows:
# (§6) Methods: 0.75 μL of 0.5 mM samples (compounds to be tested and control verapamil), 9.38 μL of 20 mg/mL liver microsomes (Human and Mouse) were taken and added to 239.88 μL PBS (on ice), and divided into 30 μL/tube samples respectively. The samples were incubated at 37° C. in a constant temperature water bath for 5 min, and then all samples were taken out. At zero-time, control group was added with 90 μL of ice acetonitrile first, and then added with 15 μL of 3 mM NADPH solution sequentially, and incubated at 37° C. in a constant temperature water bath. The corresponding samples were taken out after 5 min, 10 min, 20 min, 30 min and 60 min, respectively, and quenched by adding 90 μL of ice acetonitrile. All samples were centrifuged at 10000 rpm for 10 min, and the supernatants were taken and placed in a liquid phase vial waiting for LC-MS analysis.
# [6] = Liver microsomal stability test, mouse; type: in vitro ADME
# Source text: as §4, §5, §6
# [7] = Pharmacokinetic properties in mice; type: in vivo
# Method: The adopted biological test protocol was: drug metabolism test of the compound on the mouse in vivo.
# In order to verify the […], a representative compound QY-10-40 was selected and the pharmacokinetic properties of the compound in mice (n=3) were tested using single administration by gavage (PO, 10 mg/kg) or intravenous injection (IV, 1 mg/kg).
# FADD−/− Jurkat cells = test: Inhibition of TNF-induced programmed necrosis of FADD deficient Jurkat cells (Cell Titer-Glo viability); type: cell-based; details: at 1000-fold effective inhibitory concentration (1 μM); FADD-deficient Jurkat cells or L929 cells
structure (smiles),measurement,setting,value
Cn1ncc(C(=O)NCc2ccc(-n3cnc4c(N)ncnc43)cc2)c1Cc1ccccc1 [QY-10-40],effect on body weight and spleen coefficient,[1],can inhibit the effect of the digestive system inflammation
same,"effect on TNFα-induced hypothermia, inflammation response and death",[2],"effectively resists against TNFα-induced hypothermia, inflammation response and death"
same,inhibition of programmed necrosis,[3],can effectively inhibit the occurrence of programmed necrosis
same,inhibition of programmed necrosis,[4],can significantly inhibit occurrence of programmed necrosis
same,stability in liver microsomes (in words),[5]; human derived liver microsomes,good stability
same,T1/2 (min) Human,"[5]; human liver microsomes, NADPH, 37° C.",40.8 min
same,stability in liver microsomes (in words),[6]; mouse derived liver microsomes,good stability
same,T1/2 (min) Mouse,"[6]; mouse liver microsomes, NADPH, 37° C.",69.3 min
same,bioavailability (F) (in words),"[7]; PO 10 mg/kg, IV 1 mg/kg",better bioavailability
same,half-life (T1/2) (in words),"[7]; PO 10 mg/kg, IV 1 mg/kg",better
same,blood concentrations for most of the time within 24 h,"[7]; gavage 10 mg/kg, single dose, 10 nM = effective inhibitory concentration",> 10 nM
same,time to peak (in words),[7]; single dose (PO 10 mg/kg or IV 1 mg/kg),rapidly reach the peak
same,cytotoxicity,FADD−/− Jurkat cells,does not exhibit any cytotoxicity
